Results as given in patent publication US11471507B2, “HMGB1 antagonist” (THE FEINSTEIN INSTITUTES FOR MEDICAL RESEARCH, priority 2019, dated 2022).
“And” between values parts separate entries of the source, which are not always exact repeats. Equal values may be shown once. “Also recorded” adds a separate entry of the source. Read-outs that look alike come from different tables or passages of the source. Marks after values point to notes of the source that are not given here.

Columns and labels:
Single-dose tolerability = type: in vivo; settings: single-dose studies
[1] = test system: CCI-induced neuropathic pain; assay: Chronic constriction injury of the sciatic nerve (CCI) neuropathic pain; design: species or system male Wistar rats; settings: rat, in vivo
[2] = test system: cecal ligation and puncture-sepsis; assay: Cecal ligation and puncture (CLP) sepsis; type: in vivo; settings: male C57BL/6 mice; 500 μg/mouse IP once a day for 3 days starting 24 hours post CLP; n=15
in vivo = settings: male, Sprague-Dawley, rat; for AUC(0-inf): iv, 1 mg/kg
STZ-induced diabetes = assay: STZ-induced diabetes; type: in vivo, mice; settings: 500 μg/mouse repetitive administration; vs PBS
Procedure: Mice were administered repetitive administration of […] (500 μg/mouse). […] Repetitive administration of […] was therefore shown to be beneficial in STZ-induced diabetes. […] (*: P<0.05 vs. PBS group. N=6-8 mice per group).

[3] = test system: CCI-induced neuropathic pain; assay: Chronic constriction injury of the sciatic nerve (CCI) neuropathic pain; type: in vivo, male Wistar rats; settings: for Paw Withdrawal Latency: CCI
Procedure: The CCI rats each received surgery. […] Mechanical and thermal sensitivity tests were also performed over time. Hargreaves Thermal Hypersensitivity test was administered to the rats as well as Von Frey mechanical hypersensitivity test.
Rats (male Wistar, 150-180 gm, n=6/group) had CCI surgery. […] Two weeks after surgery, thermal (Hargreaves) or mechanical (von Frey) hypersensitivity was assessed. *: P<0.05 vs. PBS group. […]

[4] = test system: PAMPs-induced TNF release (LPS, PGN, AGE, Poly I:C); assay: PAMPs-induced TNF release in human macrophages; type: cell-based; settings: LPS 4 ng/ml, poly I:C 50 μg/ml, PGN 5 μg/ml, S100A12 50 μg/ml; 16 hours
[5] = Pharmacokinetics after intravenous administration in rats (LC-MS)
[6] = test system: APAP-induced liver injury; assay: APAP-induced liver injury model; type: in vivo, male C57BL/6 mice
[7] = test system: HMGB1-induced TNF release; assay: HMGB1-induced TNF release in human primary macrophages (ELISA); type: cell-based; settings: FIG. 17A
Procedure: For all of these studies, TNF released was measured using an ELISA.

F11 cells = assay: Disulfide HMGB1-induced calcium influx in F11 cells; type: cell-based; settings: relative fluorescent intensity; most inhibition at 50 μg/ml
Text: These studies all measured relative fluorescent intensity with FIG. 30C which included the largest amount of […]

Solubility of K883 = type: physicochemical
Text: This provides the basis for developing intravenous (IV) formulation that will serve as a benchmark for developing oral (PO) formulations.

[8] = in vivo
[9] = test system: DAMPs-induced TNF secretion (CIRP, SAA, PEDF, HSP 70, HSP90, H2A); assay: DAMPs-induced TNF secretion in human macrophages; type: cell-based; settings: 16 hours
[10] = test system: liver ischemia and reperfusion injury; settings: 500 μg/mouse IP at time of I/R surgery; 6 hours; vs vehicle; cited from earlier work
[11] = test system: cecal ligation and puncture-sepsis; settings: male C57BL/6 mice; 50 or 500 μg/mouse IP once a day for 4 days starting 24 hours post CLP; n=20; comparative data; cited from earlier work
[12] = test system: APAP-induced liver injury; settings: comparative data, cited from earlier work

SMILES: NC(=O)N(CCC(=O)O)NC(=O)[C@H](CO)NC(=O)[C@H](CO)NC(=O)N(N)Cc1ccccc1 [K883]
- tolerability (Single-dose tolerability): well-tolerated
- CCI-induced CXCL1, TNF and IL-1β expression (spine) [1]: reduce CCI-induced CSCL1, TNF and IL-1β expression
- CCI-induced CXCL1 and TNF expression (DRGs) [1]: reduce CCI-induced CSCL1 and TNF expression
- sepsis lethality (survival 2 weeks) [2]: protects against sepsis lethality
- AUC(0-inf) (in vivo; Mean): 3780 ng·h/mL
- AUC(0-inf) (in vivo; individual rats): 3810 ng·h/mL
- half-life (in vivo; serum half-life): > 60 min
- hyperglycemia (STZ-induced diabetes): delays hyperglycemia
- insulitis (STZ-induced diabetes): reduces insulitis
- weight gain (STZ-induced diabetes): improves weight gain
- CCI-induced thermal and mechanical hypersensitivity ([3]; 800 μg/rat IP once a day for 3 days, Hargreaves, von Frey): ameliorated both mechanical and thermal hypersensitivity; also recorded: improved CCI-induced thermal and mechanical hypersensitivity
- tolerance to repeated treatment ([3]; 800 μg/rat IP once daily for three days): did not develop tolerance
- paw withdrawal ([3]; CCI rat model, vehicle 3.73+/−0.58 (SD)): 5.45 ± 0.98 s
- Paw Withdrawal Latency ([3]; 0 hours post treatment): 4.1 ± 1.0 s
- Paw Withdrawal Latency ([3]; 2 hours post treatment): 4.3 ± 1.2 s
- Paw Withdrawal Latency ([3]; 6 hours post treatment): 6.0 ± 0.6* sec
- Paw Withdrawal Latency ([3]; 24 hours post treatment): 5.0 ± 0.5 s
- PAMPs-induced TNF release [4]: failed to inhibit other PAMPS; also recorded: does not inhibit other PAMPs
- AUClast, individual rats ([5]; IV 1 mg/kg, 1 mg/kg): 3772 ng·h/mL and 3807 ng·h/mL and 3749 ng·h/mL
- MRTlast, individual rats ([5]; IV 1 mg/kg, 1 mg/kg): 32.1 min and 31.7 min and 36.4 min
- Vss, individual rats ([5]; IV 1 mg/kg, 1 mg/kg): 0.163 L/kg
- t1/2, individual rats ([5]; IV 1 mg/kg, 1 mg/kg): 78 min
- Plasma concentration, individual rats ([5]; IV 1 mg/kg, 0.50 hr, 1 mg/kg): 2500 ng/mL and 3220 ng/mL
- Plasma concentration, individual rats ([5]; IV 1 mg/kg, 1.0 hr, 1 mg/kg): 1160 ng/mL and 1300 ng/mL
- Plasma concentration, individual rats ([5]; IV 1 mg/kg, 2.0 hr, 1 mg/kg): 130 ng/mL and 142 ng/mL
- Plasma concentration, individual rats ([5]; IV 1 mg/kg, 4.0 hr, 1 mg/kg): 15.1 ng/mL and 17.7 ng/mL
- Plasma concentration, individual rats ([5]; IV 1 mg/kg, 6.0 hr, 1 mg/kg): 4.04 ng/mL and 4.77 ng/mL
- Plasma concentration, individual rats ([5]; IV 1 mg/kg, 8.0 hr): 2.01 ng/mL
- Plasma concentration, individual rats ([5]; IV 1 mg/kg, 8.0 hr, 1 mg/kg): 0.871 ng/mL and 1.68 ng/mL
- AUClast, Mean ([5]; IV 1 mg/kg, mean of 3 rats): 3776 ng·h/mL
- MRTlast, Mean ([5]; IV 1 mg/kg, mean of 3 rats): 33.4 min
- half-life ([5]; male, Sprague-Dawley, rat, in vivo, 1 mg/kg, in vivo half-life (T½)): > 60 min
- AUC(0-inf) ([5]; male, Sprague-Dawley, rat, in vivo, iv, 1 mg/kg): 3780 ng·h/mL
- concentration at 0.5 hr ([5]; male, Sprague-Dawley, rat, in vivo, iv, 1 mg/kg, Plasma concentration, Mean, IV 1 mg/kg, 0.50 hr, mean of 3 rats): 2910 ng/mL
- concentration at 1 hr ([5]; male, Sprague-Dawley, rat, in vivo, iv, 1 mg/kg, Plasma concentration, Mean, IV 1 mg/kg, 1.0 hr, mean of 3 rats): 1090 ng/mL
- concentration at 2 hr ([5]; male, Sprague-Dawley, rat, in vivo, iv, 1 mg/kg, Plasma concentration, Mean, IV 1 mg/kg, 2.0 hr, mean of 3 rats): 135 ng/mL
- concentration at 4 hr ([5]; male, Sprague-Dawley, rat, in vivo, iv, 1 mg/kg, Plasma concentration, Mean, IV 1 mg/kg, 4.0 hr, mean of 3 rats): 16.6 ng/mL
- concentration at 6 hr ([5]; male, Sprague-Dawley, rat, in vivo, iv, 1 mg/kg, Plasma concentration, Mean, IV 1 mg/kg, 6.0 hr, mean of 3 rats): 5.1 ng/mL
- concentration at 8 hr ([5]; male, Sprague-Dawley, rat, in vivo, iv, 1 mg/kg, Plasma concentration, Mean, IV 1 mg/kg, 8.0 hr, mean of 3 rats): 1.52 ng/mL
- concentration at 0.5 hr ([5]; male, Sprague-Dawley, rat, in vivo, iv, 1 mg/kg, Plasma concentration, individual rats, IV 1 mg/kg, 0.50 hr): 3020 ng/mL
- concentration at 1 hr ([5]; male, Sprague-Dawley, rat, in vivo, iv, 1 mg/kg, Plasma concentration, individual rats, IV 1 mg/kg, 1.0 hr): 814 ng/mL
- concentration at 2 hr ([5]; male, Sprague-Dawley, rat, in vivo, iv, 1 mg/kg, Plasma concentration, individual rats, IV 1 mg/kg, 2.0 hr): 133 ng/mL
- concentration at 4 hr ([5]; male, Sprague-Dawley, rat, in vivo, iv, 1 mg/kg, Plasma concentration, individual rats, IV 1 mg/kg, 4.0 hr): 17 ng/mL
- concentration at 6 hr ([5]; male, Sprague-Dawley, rat, in vivo, iv, 1 mg/kg, Plasma concentration, individual rats, IV 1 mg/kg, 6.0 hr): 6.49 ng/mL
- serum ALT ([6]; 50 ugs/mouse, vs vehicle controls): reduced serum ALT
- liver necrosis (H&E histology) ([6]; APAP 350 mg/kg IP, K883 50 μg/mouse IP at 2 and 7 hours post-APAP, 24 hours, vs vehicle): reduced liver necrosis
- mice surviving the toxicity of APAP (2 weeks) ([6]; APAP 400 mg/kg, 50 μg/mouse IP once-a-day for 5 days starting 2 hours post-APAP, 8 in the control group): 14 mice out of 15
- HMGB1-induced TNF secretion [7]: inhibition
- disulfide HMGB1-induced calcium influx (F11 cells): inhibit disulfide hmgb1-induced calcium influx
- solubility (Solubility of K883; aqueous with cosolvent or surfactant or cyclodextrin, PBS:PEG 300:propylene glycol:polysorbate 80 at 50:40:5:5, preliminary evidence, read-out: solubility in excipient mixture): > 5000 µg/mL
- solubility (Solubility of K883; water, read-out: solubility in water): < 100 µg/mL
- oral bioavailability [8]: low oral bioavailability
- TNF secretion induced by other DAMPs [9]: not inhibited

SMILES: NC(=O)[C@H](CCC(=O)O)NC(=O)[C@H](CO)NC(=O)[C@H](CO)NC(=O)[C@@H](N)Cc1ccccc1 [P5779]
- Serum levels of ALT and AST [10]: reduced
- sepsis lethality (survival 2 weeks) [11]: protects against sepsis lethality
- serum ALT ([12]; 500 ugs/mouse): significant reductions in ALT
- liver necrosis (H&E histology) ([12]; APAP 350 mg/kg IP, P5779 50 or 500 μg/mouse IP at 2 and 7 hours, vs scrambled control peptide): reduced liver necrosis
- Percent survival (2 weeks) post-APAP ([12]; APAP 400 mg/kg, 500 μg/mouse IP once a day for 5 days, n=30): significantly improved
